# Data published in US12590130B2, “Bipartite molecules and uses thereof in treating diseases associated with abnormal protein aggregates” (ACADEMIA SINICA, priority 2014, dated 2026).
# Assays:
# [1] = system: Neuro2a cells expressing 109QmHtt; assay: Cell growth curve of Neuro2a cells expressing 109QmHtt; type: cell-based, mouse; settings: 109QmHtt with or without 12.5 μM H2O2; vs 8R or scrambled control
# Procedure: (§1) FIG. 5. Therapeutic effect of 8R10Q and 8R15Q in 109QmHtt-expressing cells. Panel A: Cell viability assay by MTT in Neuro2a cells expressing 25QHtt (left) or 109QmHtt (right) treated with H2O2 at 50 μM and the indicated peptide. Panel B: Cell growth curve of Neuro2a cells expressing 25QHtt or 109QmHtt treated with indicated peptide. The cells in right subpanel were further treated with H2O2 at 12.5 μM 16 hours after transfection. 109QmHtt cells growth was slower than that of the 25QHtt cells. 8R10Q treatment rescued the slow growth of Neuro2a cells by 109QmHtt with or without H2O2. Panel C: Micrographs of the phase contrast and fluorescent images of retinoic acid-differentiated Neu2a cells expressing GFP-25QHtt or GFP-109QmHtt (GFP) treated with the indicated peptide. Note the neurites of the differentiated cells. Panel D: Quantitation of the percentage of differentiated cells with neurites. Fewer 109QmHtt-expressing cells had neurites vs. 25QHtt-expressing cells. […] The experiments were conducted in triplicate and repeated twice. Statistical analysis was performed with one way ANOVA, *p<0.05; **p<0.01; ***p<0.001, ns: not significant.
# The expression of 109QmHtt reduced the growth of Neuro2a cells, and so did the lower levels of H2O2 (12.5 μM) (FIG. 5, panel B).
# [2] = system: Neuro2a cells expressing 109QmHtt; assay: Retinoic acid-induced neurite outgrowth; type: cell-based, mouse; settings: 109QmHtt cells; vs water or scrambled control
# Procedure: as §1
# Retinoic acid (RA) induced the differentiation of Neuro2a cells with neurite outgrowth. 109QmHtt decreased the number of cells bearing RA-induced neurites relative to 25QHtt (FIG. 5, panels C and D).
# R6/2 transgenic mice = assay: Neuropathology of R6/2 transgenic mice; type: in vivo, mouse
# From the text: FIG. 7. Amelioration of neuronal damage of 13 week-old R6/2 mice by 8R10Q peptide. Panel A: Micrographs of the Nissl stain sections of cortex (CTX) of WT and R6/2 mice. The cortex and its thickness are highlighted by the dashed lines and red solid lines, respectively. Panel B: Quantitation of the cortical thickness. Note the decrease in cortical thickness in R6/2 mice which was reversed by the 8R10Q. […]: Micrographs (panel D) and (panel F) show the corresponding quantitation of the Nissl stained sections of the cortex and striatum, respectively. Note the decrease in the number of neurons, which was reversed by 8R10Q. N=3/group, each bar represents the average of 5 sections. Statistical analysis performed with one way ANOVA, *p<0.05; ***p<0.001, ns: not significant.
# FIG. 8. Decrease in mHtt aggregates and glial pathology in 13-week-old R6/2 mice by 8R10Q peptide treatment. Panel A: Micrographs and corresponding quantitation (panel B) of the immunostained sections of cortex (CTX) and striatum with EM48 antibody. The brown dots show the mHtt aggregates. The left subpanels of panel B show the quantitative data with respect to the total area occupied by the aggregates, and the right, the intensity of individual aggregates. Panel C: Photographs of the immunofluorescent-stained sections of the cortex of R6/2 mice with anti-GFAP antibody. […] Panel E: Micrographs of the immunostained sections of the cortex (CTX) and striatum of WT and R6/2 mice with anti-Iba1 antibody. […] N=3/group. Each bar represented an average of 15 sections/mouse group. Statistics were performed with Student's t test for panels B and D, but with one way ANOVA, *p<0.05; **p<0.01; ***p<0.001, ns: not significant.
# To correlate the beneficial effect with the aggregates of mHtt, immunohistochemistry was performed to calculate the areas occupied by the aggregates per unit area (150 μm^2). The method was selected because the frequent clustering of the aggregates into conglomerates rendered an accurate count of the aggregate number very difficult.
substance,measurement,setting,value
"H-RRRRRRRRWDQQQQQQQQQQ-NH2 [Peptide 8R10Q, NH2-(R)8-W-D-(Q)10-CONH2]",cell growth,[1],ameliorated the reduction in growth
same,RA-induced neurite outgrowth,[2],significantly reversed the defect in neurite outgrowth
same,cortical thickness,R6/2 transgenic mice; 13 week-old R6/2 mice,prevented cortical thinning
same,loss of neurons in cortex and striatum,"R6/2 transgenic mice; R6/2 mice, intranasal",significantly prevented
same,intensity of mHtt aggregates,R6/2 transgenic mice; cortex and striatum,significantly decreased
same,tau signals,R6/2 transgenic mice; cortex and striatum of R6/2 mice,significantly enhanced
same,decrease in areas of mHtt aggregates,"R6/2 transgenic mice; cortex and striatum, vs PBS, EM48 immunohistochemistry",~60%
same,numbers of GFAP-positive astrocytes,R6/2 transgenic mice; cortex of R6/2 mice,significant decrease
same,numbers of Iba-1-positive microglia,R6/2 transgenic mice; cortex of R6/2 mice,significant decrease
